From patent US12351652B2, “Hemagglutinin-binding peptide” (priority 2019, dated 2025) come the findings set out here.

*1 amine or outer side, *2 acyl side, *3 side chain or, on linkers, in order; H or OH if unused. Where a SMILES comes first, the peptide text is derived from it. Bridges are numbered along the chain shown (N, C = ends). [ ]: non-standard residue; d: D form. The star is where a group is joined. Ethylenediamine = C(CN[*:2])N[*:1]; Hyp = O=C(O)[C@@H]1C[C@@H](O)CN1; NMeF = CN[C@@H](Cc1ccccc1)C(=O)O; Decanoyl = CCCCCCCCCC(=O)*; NMeA = CN[C@@H](C)C(=O)O; Sar = CNCC(=O)O

For test [1], the system named is influenza virus A/Puerto Rico/8/34 (H1N1). Format: cell-based.
For test [2], the system named is influenza virus A/Duck/Pennsylvania/84 (H5N2). Format: cell-based.
Test [3] relates to influenza virus A/Puerto Rico/8/34 (H1N1). Further details: species or system BALB/cA Jcl [SPF] mice. The settings on record: mouse.
Test [4] has as its system influenza virus A/Nagasaki/HA-58/2009 (H1N1). In kind it is cell-based.

In the case of `CCCCCCCCCC(=O)NCCNC(=O)[C@@H]1CSCC(=O)N[C@@H](Cc2c[nH]c3ccccc23)C(=O)N[C@@H]([C@@H](C)O)C(=O)N(C)CC(=O)N[C@@H](CC(=O)O)C(=O)N(C)[C@@H](Cc2ccccc2)C(=O)N(C)[C@@H](Cc2ccccc2)C(=O)N[C@@H](C)C(=O)N(C)[C@@H](C)C(=O)N[C@@H](Cc2cnc[nH]2)C(=O)N[C@@H](Cc2ccc(O)cc2)C(=O)N[C@@H]([C@@H](C)O)C(=O)N[C@@H](C(C)C)C(=O)N2C[C@H](O)C[C@H]2C(=O)N[C@@H](C)C(=O)N1` [HA152] ({CH2CO}-WT[Sar]D[NMeF][NMeF]A[NMeA]HYTV[Hyp]AC-{Ethylenediamine-Decanoyl}; thioether N-15), the “inhibition of cell death in low concentration range” value in test [1], in test [2] and in test [4] was “remarkable inhibition of cell death” each time. Besides, in test [3], the “in vivo anti-virus activity compared to peramivir” value was “comparable or superior to peramivir”. The compound further returned a survival rate in test [3] (in vivo, iv) of 60%.
